From PubChem BioAssay (NCI)
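Briefly, cells in 96-well plates were exposed to five compound concentrations for 48 h, and endpoints were estimated by linear interpolation. TGI: concentration producing complete growth inhibition.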

Tests used:
Test in all cases: growth of human tumour cells (NCI), 48 h
A498 renal = system: A498 renal
ACHN renal = system: ACHN renal
CAKI-1 renal = system: CAKI-1 renal
HCT-15 colon = system: HCT-15 colon
HL-60(TB) leukemia = system: HL-60(TB) leukemia
HOP-92 NSCLC = system: HOP-92 NSCLC
HT29 colon = system: HT29 colon
KM12 colon = system: KM12 colon
MOLT-4 leukemia = system: MOLT-4 leukemia
NCI-H522 lung = system: NCI-H522 lung
OVCAR-3 ovarian = system: OVCAR-3 ovarian
OVCAR-4 ovarian = system: OVCAR-4 ovarian
OVCAR-8 ovarian = system: OVCAR-8 ovarian
SF-268 CNS = system: SF-268 CNS
SK-MEL-2 melanoma = system: SK-MEL-2 melanoma
SNB-19 CNS = system: SNB-19 CNS
SNB-75 CNS = system: SNB-75 CNS
U251 CNS = system: U251 CNS
UACC-62 melanoma = system: UACC-62 melanoma
UO-31 renal = system: UO-31 renal

Row | Compound | TGI (A498 renal) [µM] | TGI (ACHN renal) [µM] | TGI (CAKI-1 renal) [µM] | TGI (HCT-15 colon) [µM] | TGI (HL-60(TB) leukemia) [µM] | TGI (HOP-92 NSCLC) [µM] | TGI (HT29 colon) [µM] | TGI (KM12 colon) [µM] | TGI (MOLT-4 leukemia) [µM] | TGI (NCI-H522 lung) [µM] | TGI (OVCAR-3 ovarian) [µM] | TGI (OVCAR-4 ovarian) [µM] | TGI (OVCAR-8 ovarian) [µM] | TGI (SF-268 CNS) [µM] | TGI (SK-MEL-2 melanoma) [µM] | TGI (SNB-19 CNS) [µM] | TGI (SNB-75 CNS) [µM] | TGI (U251 CNS) [µM] | TGI (UACC-62 melanoma) [µM] | TGI (UO-31 renal) [µM]
1 | COc1ccc(CC2c3cc(OC)c(OC)cc3CC[N+]2(C)C)cc1OC (centres undefined) | > 100 | > 100 | > 100 | > 100 | > 100 | > 100 | > 100 | > 100 | > 100 | > 100 | > 100 | > 100 | > 100 | > 100 | > 100 | > 100 | > 100 | > 100 | > 100 | > 100
2 | Oc1cc(O)cc(-c2nc3cc(F)ccc3s2)c1 | 47.1 | 81.3 | 53.8 | 61.6 |  |  | 44.8 | 52.1 |  | 36.9 | 63.6 | 63.7 | 64.8 | 50.8 | 45.1 | 97.2 |  | 60.5 | 40.7 | 76.6
3 | CCC(C)C1NC(=O)C(NC(=O)c2c3[nH]c4c(C(=O)NC5C(=O)NC(C(C)CC)C(=O)N6CCCC6C(=O)N(C)CC(=O)N(C)C(C(C)C)C(=O)OC5C)ccc(C)c4oc-3c(C)c(=O)c2=O)C(C)OC(=O)C(C(C)C)N(C)C(=O)CN(C)C(=O)C2CCCN2C1=O (centres undefined) | 39.4 | 65.2 | > 91.2 | > 100 | 52.2 | > 80.3 | 29.2 | > 56.7 | > 39.8 | 5.06 | 62.9 | > 89.1 | 38.3 | 97.4 | 17.2 | > 100 | 32.9 | > 100 | 17.6 | > 77
4 | c1ccc([P+](CC[P+](c2ccccc2)(c2ccccc2)c2ccccc2)(c2ccccc2)c2ccccc2)cc1 | > 100 | > 100 | > 100 | > 100 | 55.2 | > 92.3 | > 100 | > 100 | > 100 | > 79.5 | > 59.7 | > 100 | > 100 | > 100 | 43.6 | > 100 | > 76.5 | 21 | > 100 | > 100
5 | O=C(O)C1C2C=CC(C2)C1c1ccccc1 (centres undefined) | > 100 | > 100 | > 100 | > 100 | > 100 | > 100 | > 100 | > 100 | > 100 |  | > 100 |  | > 100 | > 100 | > 100 | > 100 | > 100 | > 100 | > 100 | > 100
6 | COc1cccc2cc(C(=O)O)c(=O)oc12 | > 100 | > 100 | > 100 | > 100 | > 100 | > 100 | > 100 | > 100 | > 100 | > 100 | > 100 | > 100 | > 100 | > 100 | > 100 | > 100 | > 100 | > 100 | > 100 | > 100
7 | CC(=O)O/C(=C1\C[C@H]2[C@@H]3CC=C4C[C@@H](OC(C)=O)CC[C@]4(C)[C@H]3CC[C@]2(C)C1=O)C(F)(F)F | 45.1 | 48 | 24.3 | 17.6 | 13.6 | 17.7 | 29.2 | 31.8 | 7.37 | 8.99 | 21.2 | 61.4 | 16.8 | 19.9 | 17.2 | 40.6 | 47.4 | 17.7 | 20.2 | 32.1
